Data from patent US8067424B2, “Selective inhibitors for cyclin-dependent kinases” (Emory University, priority 2007, dated 2011).
Like-named read-outs stand apart in the source and are kept apart here.

Assays:
CCRF-CEM = test: cells; details: Homo sapiens
OVCAR-4 [1] = test: cells; details: Homo sapiens
OVCAR-4 [2] = system: OVCAR-4
HS 578T = details: for Mean Optical Densities / Percent Growth: HS 578T
HCT-116 = test: cells; details: Homo sapiens
MCF-7 tumors = test: MCF-7 tumor growth in nude mice, BS-194 subcutaneous; assay type: in vivo, Balb/c nude mice; details: subcutaneous twice daily, 14 days
Procedure: In all, 32 female 8- to 10-week Balb/c nude mice (Harlan UK) were randomly divided into three groups. The mice received 0.72 mg 60-day release E2 pellets (Innovative Research of America, USA), subcutaneously implanted in one flank. MCF7 cells, were trypsinized and 5×10^6 cells in 0.1 ml of PBS were subcutaneously injected into the other flank of each mouse and tumor volumes were measured every 2-3 days, according to the formula (tumor width squared×tumor length)/2. Animal weight was also recorded throughout the course of the study. The animals were injected subcutaneously with BS-194, prepared in 10% DMSO, 50 mM HCl, 5% Tween 20, and 85% Saline, twice daily for 14 days, at which point the animals were sacrificed. The xenograft experiments were conducted after appropriate ethical approval and licensing was obtained in accordance with the UK ‘Guidance on the operation of animals (Scientific Procedure) Act 1986 (HMSO, London, UK, 1990).

SNB-75 = test: cells; details: Homo sapiens
[3] = OVCAR-8, log10 concentration −4.0
[4] = OVCAR-8, log10 concentration −5.0
[5] = OVCAR-8, log10 concentration −6.0
[6] = OVCAR-8, log10 concentration −7.0
[7] = OVCAR-8, log10 concentration −8.0
[8] = UACC-62, log10 concentration −4.0
[9] = UACC-62, log10 concentration −5.0
[10] = UACC-62, log10 concentration −6.0
[11] = UACC-62, log10 concentration −7.0
[12] = UACC-62, log10 concentration −8.0
[13] = RPMI-8226, log10 concentration −4.0
[14] = RPMI-8226, log10 concentration −5.0
[15] = RPMI-8226, log10 concentration −6.0
[16] = RPMI-8226, log10 concentration −7.0
[17] = RPMI-8226, log10 concentration −8.0
[18] = HCT-15, log10 concentration −4.0
[19] = HCT-15, log10 concentration −5.0
[20] = HCT-15, log10 concentration −6.0
[21] = HCT-15, log10 concentration −7.0
[22] = HCT-15, log10 concentration −8.0
[23] = SK-OV-3, log10 concentration −4.0
[24] = SK-OV-3, log10 concentration −5.0
[25] = SK-OV-3, log10 concentration −6.0
[26] = SK-OV-3, log10 concentration −7.0
[27] = SK-OV-3, log10 concentration −8.0
[28] = OVCAR-4, log10 concentration −4.0
[29] = OVCAR-4, log10 concentration −5.0
[30] = OVCAR-4, log10 concentration −6.0
[31] = OVCAR-4, log10 concentration −7.0
[32] = OVCAR-4, log10 concentration −8.0

CC(C)c1cnn2c(NCc3ccccc3)cc(N[C@@H](CO)[C@H](O)CO)nc12 [ICEC0318, (3S)-3-(7-(Benzylamino)-3-isopropylpyrazolo[1,5-a]pyrimidin-5-ylamino)butane-1,2,4-triol]
TGI (A498; A498 (Renal Cancer)): 4.83E−7
Mean Optical Densities (A498; A498, log10 concentration −4.0): 0.386
Percent Growth (A498; A498, log10 concentration −4.0): −54%
Mean Optical Densities (A498; A498, log10 concentration −5.0): 0.365
Percent Growth (A498; A498, log10 concentration −5.0): −56%
Mean Optical Densities (A498; A498, log10 concentration −6.0): 0.414
Percent Growth (A498; A498, log10 concentration −6.0): −50%
Mean Optical Densities (A498; A498, log10 concentration −7.0): 1.321
Percent Growth (A498; A498, log10 concentration −7.0): 109%
Mean Optical Densities (A498; A498, log10 concentration −8.0): 1.280
Percent Growth (A498; A498, log10 concentration −8.0): 100%
TGI (OVCAR-8; OVCAR-8 (Ovarian Cancer)): >1.00E−4
Mean Optical Densities (OVCAR-8; [3]): 0.723
Percent Growth (OVCAR-8; [3]): 10%
Mean Optical Densities (OVCAR-8; [4]): 0.810
Percent Growth (OVCAR-8; [4]): 16%
Mean Optical Densities (OVCAR-8; [5]): 0.803
Percent Growth (OVCAR-8; [5]): 15%
Mean Optical Densities (OVCAR-8; [6]): 1.975
Percent Growth (OVCAR-8; [6]): 89%
Mean Optical Densities (OVCAR-8; [7]): 2.165
Percent Growth (OVCAR-8; [7]): 101%
TGI (UACC-62; UACC-62 (Melanoma)): 3.16E−7
Mean Optical Densities (UACC-62; [8]): 0.078
Percent Growth (UACC-62; [8]): −90%
Mean Optical Densities (UACC-62; [9]): 0.165
Percent Growth (UACC-62; [9]): −78%
Mean Optical Densities (UACC-62; [10]): 0.142
Percent Growth (UACC-62; [10]): −81%
Mean Optical Densities (UACC-62; [11]): 1.821
Percent Growth (UACC-62; [11]): 81%
Mean Optical Densities (UACC-62; [12]): 2.110
Percent Growth (UACC-62; [12]): 102%
TGI (U251; U251 (CNS Cancer)): >1.00E−4
Mean Optical Densities (U251; U251, log10 concentration −4.0): 0.262
Percent Growth (U251; U251, log10 concentration −4.0): 2%
Mean Optical Densities (U251; U251, log10 concentration −5.0): 0.289
Percent Growth (U251; U251, log10 concentration −5.0): 5%
Mean Optical Densities (U251; U251, log10 concentration −6.0): 0.299
Percent Growth (U251; U251, log10 concentration −6.0): 6%
Mean Optical Densities (U251; U251, log10 concentration −7.0): 0.999
Percent Growth (U251; U251, log10 concentration −7.0): 81%
Mean Optical Densities (U251; U251, log10 concentration −8.0): 1.168
Percent Growth (U251; U251, log10 concentration −8.0): 99%
TGI (MCF7; MCF7 (Breast Cancer)): >1.00E−4
Mean Optical Densities (MCF7; MCF7, log10 concentration −4.0): 0.229
Percent Growth (MCF7; MCF7, log10 concentration −4.0): 6%
Mean Optical Densities (MCF7; MCF7, log10 concentration −5.0): 0.237
Percent Growth (MCF7; MCF7, log10 concentration −5.0): 7%
Mean Optical Densities (MCF7; MCF7, log10 concentration −6.0): 0.244
Percent Growth (MCF7; MCF7, log10 concentration −6.0): 7%
Mean Optical Densities (MCF7; MCF7, log10 concentration −7.0): 0.805
Percent Growth (MCF7; MCF7, log10 concentration −7.0): 72%
Mean Optical Densities (MCF7; MCF7, log10 concentration −8.0): 1.098
Percent Growth (MCF7; MCF7, log10 concentration −8.0): 107%
TGI (RPMI-8226; RPMI-8226 (Leukemia)): >1.00E−4
Mean Optical Densities (RPMI-8226; [13]): 0.249
Percent Growth (RPMI-8226; [13]): 7%
Mean Optical Densities (RPMI-8226; [14]): 0.302
Percent Growth (RPMI-8226; [14]): 18%
Mean Optical Densities (RPMI-8226; [15]): 0.311
Percent Growth (RPMI-8226; [15]): 19%
Mean Optical Densities (RPMI-8226; [16]): 0.556
Percent Growth (RPMI-8226; [16]): 67%
Mean Optical Densities (RPMI-8226; [17]): 0.595
Percent Growth (RPMI-8226; [17]): 75%
GI50 (CCRF-CEM): 342 nM
GI50 (OVCAR-4 [1]; OVCAR-4): 343 nM
CC50 (OVCAR-4 [1]; OVCAR-4, read-out: LC50): > 100000 nM
TGI (HCT-15; HCT-15 (Colon Cancer)): >1.00E−4
Mean Optical Densities (HCT-15; [18]): 0.268
Percent Growth (HCT-15; [18]): 2%
Mean Optical Densities (HCT-15; [19]): 0.286
Percent Growth (HCT-15; [19]): 3%
Mean Optical Densities (HCT-15; [20]): 0.481
Percent Growth (HCT-15; [20]): 21%
Mean Optical Densities (HCT-15; [21]): 1.262
Percent Growth (HCT-15; [21]): 90%
Mean Optical Densities (HCT-15; [22]): 1.354
Percent Growth (HCT-15; [22]): 98%
TGI (SK-OV-3; SK-OV-3 (Ovarian Cancer)): >1.00E−4
Mean Optical Densities (SK-OV-3; [23]): 0.799
Percent Growth (SK-OV-3; [23]): 9%
Mean Optical Densities (SK-OV-3; [24]): 0.860
Percent Growth (SK-OV-3; [24]): 17%
Mean Optical Densities (SK-OV-3; [25]): 0.903
Percent Growth (SK-OV-3; [25]): 23%
Mean Optical Densities (SK-OV-3; [26]): 1.701
Percent Growth (SK-OV-3; [26]): 132%
Mean Optical Densities (SK-OV-3; [27]): 1.504
Percent Growth (SK-OV-3; [27]): 105%
TGI (OVCAR-4 [2]; OVCAR-4 (Ovarian Cancer)): 1.45E−5
Mean Optical Densities (OVCAR-4 [2]; [28]): 0.269
Percent Growth (OVCAR-4 [2]; [28]): −25%
Mean Optical Densities (OVCAR-4 [2]; [29]): 0.399
Percent Growth (OVCAR-4 [2]; [29]): 5%
Mean Optical Densities (OVCAR-4 [2]; [30]): 0.445
Percent Growth (OVCAR-4 [2]; [30]): 10%
Mean Optical Densities (OVCAR-4 [2]; [31]): 1.138
Percent Growth (OVCAR-4 [2]; [31]): 95%
Mean Optical Densities (OVCAR-4 [2]; [32]): 1.246
Percent Growth (OVCAR-4 [2]; [32]): 109%
TGI (HS 578T; HS 578T (Breast Cancer)): 8.54E−7
Mean Optical Densities (HS 578T; log10 concentration −4.0): 0.314
Percent Growth (HS 578T; log10 concentration −4.0): −22%
Mean Optical Densities (HS 578T; log10 concentration −5.0): 0.352
Percent Growth (HS 578T; log10 concentration −5.0): −12%
Mean Optical Densities (HS 578T; log10 concentration −6.0): 0.373
Percent Growth (HS 578T; log10 concentration −6.0): −7%
Mean Optical Densities (HS 578T; log10 concentration −7.0): 0.803
Percent Growth (HS 578T; log10 concentration −7.0): 95%
Mean Optical Densities (HS 578T; log10 concentration −8.0): 0.867
Percent Growth (HS 578T; log10 concentration −8.0): 110%
GI50 (HCT-116; HCT-116): 161 nM
CC50 (HCT-116; HCT-116, read-out: LC50): > 100000 nM
Change in animal weight (MCF-7 tumors): nearly constant
GI50 (SNB-75; SNB-75): 222 nM
CC50 (SNB-75; SNB-75, read-out: LC50): 1600 nM
